From patent US9227969B2, “Compounds and compositions as inhibitors of MEK” (NOVARTIS AG, priority 2013, dated 2016) come the findings set out here.

The target of assay [1] is T1, human full length MEK1 kinase (Homo sapiens (Human), UniProt Q02750). The settings on record: read-out: MEK1 1 mM ATP IC50, BRAF-MEK-ERK cascade.
From the text: (§2) A BRAF-MEK-ERK cascade assay is used to evaluate the effects of these compounds as inhibitors of the MAP kinase pathway. […] TR-FRET (Time resolved fluorescence resonance energy transfer) detection technology is used for the read out.
The target in assay [2] is T1, human full length MEK1 kinase. The assay can be described thus: biochemical.
From the text: as §2
For assay [3], the target named is PDGFRa (Homo sapiens (Human), UniProt P16234). The assay can be described thus: Kinase Panel screen: PDGFRa. The class given is biochemical. The text has this: (§1) Compounds of the invention are screened, using assay conditions known in the art, against some or all of the “Kinase Panel” comprising ABL1, ABL1 (T315I), ACVR1, AKT1, ALK, AURKA, AXL, BTK, CAMK2D, CDK1B, CDK2A, CDK4D1, CSK, CSNK1G3, EGFR, EPHA4, EPHB4, ERBB4, FGFR1, FGFR2, FGFR3, FGFR3 (K650E), FGFR4, FLT3 (D835Y), IGF1R, GSK3B, INSR, IRAK4, JAK1, JAK2, JAK3, KDR, KIT, LCK, LYN, MAP3K8, MAPK1, MAPK10, MAPK14, MAPKAPK2, MAPKAPK5, MET, MKNK1, MKNK2, PAK2, PDGFRa, PDPK1, PIM2, PKN1, PKN2, PLK1, PRKACA, PRKCA, PRKCQ, RET, ROCK2, RPS6 KB1, SRC, SYK, TYK2, WNK1, ZAP70, PIKSCD, PIK3CG, MTOR, PIK3C3, PIK3CA, PIK3CB and PIK4CB.
Chain of PDGFRa (P16234 24-1089, species assumed): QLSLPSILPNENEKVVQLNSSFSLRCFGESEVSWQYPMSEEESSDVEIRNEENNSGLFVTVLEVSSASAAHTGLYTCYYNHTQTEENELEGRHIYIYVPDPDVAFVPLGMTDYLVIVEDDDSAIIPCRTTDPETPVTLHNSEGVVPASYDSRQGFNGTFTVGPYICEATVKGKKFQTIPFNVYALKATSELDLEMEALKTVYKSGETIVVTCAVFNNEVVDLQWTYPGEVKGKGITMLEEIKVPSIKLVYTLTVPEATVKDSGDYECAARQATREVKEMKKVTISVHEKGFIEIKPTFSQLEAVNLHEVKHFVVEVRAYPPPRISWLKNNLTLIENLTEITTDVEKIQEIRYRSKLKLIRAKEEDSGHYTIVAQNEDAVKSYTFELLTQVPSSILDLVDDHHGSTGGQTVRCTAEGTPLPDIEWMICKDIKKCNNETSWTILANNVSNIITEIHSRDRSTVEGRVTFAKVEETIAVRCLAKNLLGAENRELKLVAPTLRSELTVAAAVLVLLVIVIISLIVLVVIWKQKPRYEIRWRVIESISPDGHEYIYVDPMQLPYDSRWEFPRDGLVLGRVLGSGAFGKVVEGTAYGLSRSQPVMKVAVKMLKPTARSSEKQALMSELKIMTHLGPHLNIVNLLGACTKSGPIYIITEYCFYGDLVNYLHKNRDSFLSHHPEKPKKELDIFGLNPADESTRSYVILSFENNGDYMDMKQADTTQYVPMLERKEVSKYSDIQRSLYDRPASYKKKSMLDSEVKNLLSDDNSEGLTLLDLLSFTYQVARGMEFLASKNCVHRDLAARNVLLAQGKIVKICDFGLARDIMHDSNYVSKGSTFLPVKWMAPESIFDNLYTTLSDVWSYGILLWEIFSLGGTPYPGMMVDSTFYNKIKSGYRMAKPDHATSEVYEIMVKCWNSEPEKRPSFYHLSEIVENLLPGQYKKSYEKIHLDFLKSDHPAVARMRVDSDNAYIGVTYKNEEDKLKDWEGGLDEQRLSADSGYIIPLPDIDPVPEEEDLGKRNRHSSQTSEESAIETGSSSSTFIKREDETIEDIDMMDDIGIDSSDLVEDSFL

For assay [4], the target named is LYN (Homo sapiens (Human), UniProt P07948). The assay can be described thus: Kinase Panel screen: LYN. The class given is biochemical.
Chain of LYN (P07948 whole entry, species assumed): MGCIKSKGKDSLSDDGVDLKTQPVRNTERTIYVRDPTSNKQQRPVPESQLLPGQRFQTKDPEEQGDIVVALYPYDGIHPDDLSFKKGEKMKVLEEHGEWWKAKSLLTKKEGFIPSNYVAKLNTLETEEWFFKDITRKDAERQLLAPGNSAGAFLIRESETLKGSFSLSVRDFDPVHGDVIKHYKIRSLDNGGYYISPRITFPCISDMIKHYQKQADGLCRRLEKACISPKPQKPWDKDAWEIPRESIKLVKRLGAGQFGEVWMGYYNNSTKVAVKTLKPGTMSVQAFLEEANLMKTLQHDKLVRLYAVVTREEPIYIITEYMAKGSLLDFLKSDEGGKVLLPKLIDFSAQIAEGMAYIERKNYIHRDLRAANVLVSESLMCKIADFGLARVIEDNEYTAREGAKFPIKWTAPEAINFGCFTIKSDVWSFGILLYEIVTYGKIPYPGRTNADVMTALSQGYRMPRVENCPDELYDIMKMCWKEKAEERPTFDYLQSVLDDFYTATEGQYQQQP
From the text: as §1

The target of assay [5] is LCK (Homo sapiens (Human), UniProt P06239). The assay can be described thus: Kinase Panel screen: LCK. The class given is biochemical.
Chain of LCK (P06239 whole entry, species assumed): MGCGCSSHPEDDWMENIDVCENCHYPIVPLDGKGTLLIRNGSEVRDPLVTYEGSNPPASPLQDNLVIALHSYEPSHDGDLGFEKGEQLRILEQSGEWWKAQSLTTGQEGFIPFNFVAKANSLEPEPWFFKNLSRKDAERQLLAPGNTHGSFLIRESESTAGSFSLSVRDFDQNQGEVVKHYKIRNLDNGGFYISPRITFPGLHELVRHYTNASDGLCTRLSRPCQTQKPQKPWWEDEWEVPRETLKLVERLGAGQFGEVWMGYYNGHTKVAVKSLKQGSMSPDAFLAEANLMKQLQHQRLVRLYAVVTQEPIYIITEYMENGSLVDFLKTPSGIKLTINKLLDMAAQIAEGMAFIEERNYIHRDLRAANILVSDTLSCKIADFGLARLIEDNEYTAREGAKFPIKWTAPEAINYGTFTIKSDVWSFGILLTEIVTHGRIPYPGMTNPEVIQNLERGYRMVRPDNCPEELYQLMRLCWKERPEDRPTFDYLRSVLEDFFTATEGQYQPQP
From the text: as §1

Assay [6] deals with ABL1 (Homo sapiens (Human), UniProt P00519). The assay can be described thus: Kinase Panel screen: ABL1. The class given is biochemical.
Chain of ABL1 (P00519 whole entry, species assumed): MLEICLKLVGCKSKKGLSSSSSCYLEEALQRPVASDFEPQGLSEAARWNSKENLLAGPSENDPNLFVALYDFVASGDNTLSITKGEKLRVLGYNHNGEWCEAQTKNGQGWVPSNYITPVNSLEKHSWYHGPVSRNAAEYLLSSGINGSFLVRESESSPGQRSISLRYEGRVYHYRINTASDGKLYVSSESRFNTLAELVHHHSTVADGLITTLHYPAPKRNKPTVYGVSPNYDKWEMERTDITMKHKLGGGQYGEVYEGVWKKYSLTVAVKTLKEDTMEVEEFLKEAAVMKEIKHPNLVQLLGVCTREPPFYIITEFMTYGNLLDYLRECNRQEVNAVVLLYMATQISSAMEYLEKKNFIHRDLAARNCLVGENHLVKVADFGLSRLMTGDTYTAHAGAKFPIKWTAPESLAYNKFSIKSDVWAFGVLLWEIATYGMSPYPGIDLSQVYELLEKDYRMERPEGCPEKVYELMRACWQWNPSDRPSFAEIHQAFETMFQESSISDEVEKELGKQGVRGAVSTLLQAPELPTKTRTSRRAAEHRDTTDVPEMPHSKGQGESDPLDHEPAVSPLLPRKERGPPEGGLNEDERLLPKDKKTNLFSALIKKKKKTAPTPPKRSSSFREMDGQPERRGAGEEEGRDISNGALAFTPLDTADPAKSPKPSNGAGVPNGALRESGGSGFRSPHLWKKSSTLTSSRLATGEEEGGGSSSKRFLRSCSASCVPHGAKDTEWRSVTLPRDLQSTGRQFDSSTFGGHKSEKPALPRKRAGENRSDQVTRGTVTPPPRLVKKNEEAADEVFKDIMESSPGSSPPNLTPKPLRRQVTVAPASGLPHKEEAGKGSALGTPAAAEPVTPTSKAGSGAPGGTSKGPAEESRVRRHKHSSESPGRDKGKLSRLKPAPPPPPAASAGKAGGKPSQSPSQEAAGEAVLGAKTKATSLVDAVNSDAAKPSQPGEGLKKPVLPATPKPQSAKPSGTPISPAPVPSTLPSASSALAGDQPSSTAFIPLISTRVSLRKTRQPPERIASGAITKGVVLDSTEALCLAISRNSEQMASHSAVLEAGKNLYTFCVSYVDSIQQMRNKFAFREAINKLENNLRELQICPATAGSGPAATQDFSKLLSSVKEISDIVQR
From the text: as §1

One may read the IC50 as the midpoint of a concentration-inhibition curve.

Like-named read-outs stand apart in the source and are kept apart here.

T1 sequence (Q02750 whole entry): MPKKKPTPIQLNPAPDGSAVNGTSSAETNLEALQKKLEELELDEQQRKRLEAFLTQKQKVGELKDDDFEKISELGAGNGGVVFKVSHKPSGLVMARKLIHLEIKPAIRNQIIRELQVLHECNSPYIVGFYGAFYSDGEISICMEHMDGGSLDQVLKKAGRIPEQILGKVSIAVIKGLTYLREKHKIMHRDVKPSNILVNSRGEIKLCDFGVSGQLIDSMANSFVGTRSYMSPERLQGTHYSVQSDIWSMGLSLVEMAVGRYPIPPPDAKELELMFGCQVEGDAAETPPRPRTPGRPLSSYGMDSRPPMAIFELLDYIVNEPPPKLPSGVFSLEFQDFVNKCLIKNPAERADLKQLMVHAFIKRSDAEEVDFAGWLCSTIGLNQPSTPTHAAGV

For the compound `Cc1nc2cnc3cc(F)c(-c4ccc(Oc5ncccn5)cc4Cl)cc3c2n1[C@H]1CCN(C(=O)CO)C[C@@H]1F` [Example 1A, 1-((3S,4S)-4-(8-(2-chloro-4-(pyrimidin-2-yloxy)phenyl)-7-fluoro-2-methyl-1H-imidazo[4,5-c]quinolin-1-yl)-3-fluoropiperidin-1-yl)-2-hydroxyethanone], the IC50 in assay [1] and in assay [2] was 5 nM in each case.
In the case of `Cc1nc2cnc3cc(F)c(-c4ccc(Oc5ncccn5)cc4Cl)cc3c2n1[C@@H]1CCN(C(=O)CO)C[C@H]1F` [Example 1B, 1-((3R,4R)-4-(8-(2-chloro-4-(pyrimidin-2-yloxy)phenyl)-7-fluoro-2-methyl-1H-imidazo[4,5-c]quinolin-1-yl)-3-fluoropiperidin-1-yl)-2-hydroxyethanone], the IC50 in assay [1] and in assay [2] was 138 nM each time.
On to `COc1cc(Oc2ccccn2)ccc1-c1ccc2ncc3ncn(-c4ccc(CC#N)cc4)c3c2c1` [compound (B)], for which the IC50 in assay [3] came out at 50 nM; in assay [4] it was 30 nM; in assay [5], 7 nM; in assay [6], 20 nM.
